# Entries after “also recorded” stand apart in the source; their conditions may differ.
# What was measured:
# [1] = system: sigma binding sites; conditions: background; cited from earlier work
# [2] = system: sigma binding sites; assay: sigma binding site inhibition: displacement of radiolabelled haldol; conditions: for binding to the sigma binding site (in words): hydrochloride
# Protocol: (§1) The compound prepared in Example 1 was tested for sigma binding site inhibition in comparison with Haldol, a knows selective receptor for sigma binding sites. In particular, a radioligand of haldol was bound to sigma binding sites to provide radio labeled ligands at sigma binding receptor sites of tissue. In the tests, the compound of Example 1 was then added to the cell system to see how successfully it displaced the radioactive ligands at the sigma binding site. The higher the percentage of radio ligand displaced, the greater the percentage of specific binding at the sigma sites.
# The compound of Example 2 was tested in a similar fashion to that previously described in order to test comparison with Haldol or sigma binding site activity.
# [3] = system: Dopamine 2; assay: Dopamine 2 binding, [^3 H]-Sulpiride; conditions: for Percent Inhibition: Average, N = 2; for Percent Binding: Table 6 (head from Table 5)
# Description: (§2) Any number for a psychoactive drug over 50% is considered highly significant. By way of example, the following Table 2 illustrates a percentage of specific binding for certain known psychoactives capable of binding at other binding sites which are responsible for the undesirable side effects often associated with psychoactive agents.
# [4] = system: PCP; assay: PCP site binding, [^3 H]-TCP; conditions: for Percent Inhibition / Percent Binding: [^3 H]-TCP; for Percent Inhibition: Average, N = 2; for Percent Binding: Table 6 (head from Table 5)
# Description: as §2
# [^3 HTCP is a PCP derivative which selectively labels PCP site; PCP i
# [5] = system: dopaminergic receptors; assay: binding at dopaminergic receptors (summary of dopamine 1 and 2 binding)
# Description: as §2
# [6] = system: sigma; assay: sigma binding capability, [^3 H]-DTG; conditions: for Percent Binding: [^3 H]-DTG
# Protocol: as §1, with “In particular, a radioligand of haldol was bound to sigma binding sites to provide radio labeled ligands at sigma binding receptor sites of tissue.” left out
# The following table illustrates testing of sigma binding capability of bromhexine. Again, the test protocol and procedure were as previously described.
# [7] = system: Dopamine 1; assay: Dopamine 1 binding, [^3 H]-SCH 23390; conditions: for Percent Binding: Table 6 (head from Table 5); for Percent Inhibition: Average, N = 2
# Description: as §2
smiles,measurement,setting,value
"c1ccc(C2(N3CCCCC3)CCCCC2)cc1 [PCP, phencyclidine]",affinity for sigma binding sites (in words),[1],also bind at this site
"CCN(CCc1ccccc1)C1CCCCC1.Cl [Example 2, N-cyclohexyl-N-ethyl 2-phenylethylamine hydrochloride]",% Displaced Haldol,"[2]; Table 3, 10^-5 M, 10 µM",107.6%
same,% Sigma Site Binding,"[2]; Table 3, 10^-5 M, 10 µM",-7.6%
same,VERIFICATION % Displaced Haldol,"[2]; Table 3, 10^-5 M, 10 µM",91.7%
same,VERIFICATION % Sigma Site Binding,"[2]; Table 3, 10^-5 M, 10 µM",8.3%
same,% Displaced Haldol,"[2]; Table 3, 10^-7 M, 0.1 µM",84.7%
same,% Sigma Site Binding,"[2]; Table 3, 10^-7 M, 0.1 µM",15.3%
same,VERIFICATION % Displaced Haldol,"[2]; Table 3, 10^-7 M, 0.1 µM",69.0%
same,VERIFICATION % Sigma Site Binding,"[2]; Table 3, 10^-7 M, 0.1 µM",31.0%
same,% Displaced Haldol,"[2]; Table 3, 10^-9 M, 0.001 µM",43.2%
same,% Sigma Site Binding,"[2]; Table 3, 10^-9 M, 0.001 µM",56.8%
same,VERIFICATION % Displaced Haldol,"[2]; Table 3, 10^-9 M, 0.001 µM",33.9%
same,VERIFICATION % Sigma Site Binding,"[2]; Table 3, 10^-9 M, 0.001 µM",66.1%
same,binding to the sigma binding site (in words),[2],binds selectively to the sigma and PCP binding sites
same,binding to the sigma binding site (in words),[2]; listed as N-cyclohexyl-N-ethyl 2-phenylethylamine,high degree of active sigma binding capability
same,Percent Inhibition,[3]; 10^-5 M,47.2%
same,Percent Inhibition,[3]; 10^-7 M,7.8%
same,Percent Inhibition,[3]; 10^-9 M,5.9%
same,binding to PCP sites (in words),[4],binds selectively to the sigma and PCP binding sites
same,Percent Inhibition,[4]; 10^-5 M,87.7%
same,Percent Inhibition,[4]; 10^-7 M,21.0%
same,Percent Inhibition,[4]; 10^-9 M,11.1%
same,binding to dopaminergic sites (in words),[5],only very weakly binds to the dopaminergic site
"CN(Cc1cc(Br)cc(Br)c1N)C1CCCCC1 [bromhexine, reference compound]",Percent Binding,"[6]; 10^-5 M, 10 µM",90.8%
same,Percent Binding,"[6]; 10^-7 M, 0.1 µM",45.1%
same,Percent Binding,"[6]; 10^-9 M, 0.001 µM",24.8%
same,sigma binding capability (in words),[6]; bromhexine,bind to the sigma site; also recorded: high degree of active sigma binding capability
same,Percent Binding,"[7]; 10^-5 M, 10 µM",17.5%
same,Percent Binding,"[7]; 10^-7 M, 0.1 µM",10.8%
same,Percent Binding,"[7]; 10^-9 M, 0.001 µM",3.9%
same,Percent Binding,"[3]; 10^-5 M, 10 µM",11.9%
same,Percent Binding,"[3]; 10^-7 M, 0.1 µM",4.5%
same,Percent Binding,"[3]; 10^-9 M, 0.001 µM",5.6%
same,binding to PCP sites (in words),[4],negligible
same,Percent Binding,"[4]; 10^-5 M, 10 µM",-2.5%
same,Percent Binding,"[4]; 10^-7 M, 0.1 µM",0.2%
same,Percent Binding,"[4]; 10^-9 M, 0.001 µM",-13.6%
same,binding to dopaminergic sites (in words),[5],negligible
"CCN(Cc1ccccc1)C1CCCCC1.Cl [Example 1, N-cyclohexyl-N-ethylbenzylamine hydrochloride]",% Displaced Haldol,"[2]; Table 1, 10^-5 M, 10 µM",96.0%
same,% Sigma Site Binding,"[2]; Table 1, 10^-5 M, 10 µM",4.0%
same,VERIFICATION % Displaced Haldol,"[2]; Table 1, 10^-5 M, 10 µM",86.7%
same,VERIFICATION % Sigma Site Binding,"[2]; Table 1, 10^-5 M, 10 µM",13.3%
same,% Displaced Haldol,"[2]; Table 1, 10^-7 M, 0.1 µM",99.1%
same,% Sigma Site Binding,"[2]; Table 1, 10^-7 M, 0.1 µM",0.9%
same,VERIFICATION % Displaced Haldol,"[2]; Table 1, 10^-7 M, 0.1 µM",61.1%
same,VERIFICATION % Sigma Site Binding,"[2]; Table 1, 10^-7 M, 0.1 µM",38.9%
same,% Displaced Haldol,"[2]; Table 1, 10^-9 M, 0.001 µM",27.5%
same,% Sigma Site Binding,"[2]; Table 1, 10^-9 M, 0.001 µM",72.5%
same,VERIFICATION % Displaced Haldol,"[2]; Table 1, 10^-9 M, 0.001 µM",22.5%
same,VERIFICATION % Sigma Site Binding,"[2]; Table 1, 10^-9 M, 0.001 µM",77.5%
same,binding to the sigma binding site (in words),[2],selectively binds to the sigma binding site
same,binding to the sigma binding site (in words),[2]; listed as N-cyclohexyl-N-ethyl 2-benzylamine,high degree of active sigma binding capability
same,Percent Inhibition,[7]; 10^-5 M,10.7%
same,Percent Inhibition,[7]; 10^-7 M,5.9%
same,Percent Inhibition,[7]; 10^-9 M,3.2%
same,Percent Inhibition,[3]; 10^-5 M,14.8%
same,Percent Inhibition,[3]; 10^-7 M,-1.5%
same,Percent Inhibition,[3]; 10^-9 M,-1.4%
same,Percent Inhibition,[4]; 10^-5 M,25.1%
same,Percent Inhibition,[4]; 10^-7 M,7.1%
same,Percent Inhibition,[4]; 10^-9 M,9.4%
same,binding to dopaminergic sites (in words),[5],excluded from binding at dopaminergic receptors
O=C(CCCN1CCC(O)(c2ccc(Cl)cc2)CC1)c1ccc(F)cc1 [haloperidol],affinity for sigma binding sites (in words),[1],high affinity

# Reference: patent US5256698A, “Treatment of psychosis using cyclohexyl-phenyl-lower alkyl amine derivatives” (University of Iowa Research Foundation, priority 1990, dated 1993)
